Data reported in article PMC12209172, “Poly(ADP-ribose)polymerase 2 is zinc-dependent enzyme and nucleosome reorganizer” (Cellular and Molecular Life Sciences: CMLS, 2025).
Where “and” joins values, the source holds several entries; their conditions need not be identical. Identical values can stand only once.

Tests used:
[1] = molecular target: T1, WGR domain-nucleosome complexes (Homo sapiens, UniProt Q9UGN5); test: spFRET microscopy of WGR domain-nucleosome complexes; settings: Np nucleosomes, WGR domain plus 2 mM Zn2+
T1 construct: WGR domain of PARP2 (residues 77–220) into pET-15b-TEV expression vector; 6xHis (pET-15b-TEV) (N, cleaved yes); made in house; host or cells: Escherichia coli Rosetta2 (DE3) pLysS (WGR)
Procedure: In the study of nucleosome-PARP2 interactions, nucleosomes (1–2 nM) were incubated with PARP2 (12.5–200 nM) in buffer A (50 mM Tris-HCl pH 7.5; 40 mM NaCl; 0.5 mM β-mercaptoethanol (β-ME); 0.1% NP40) at 25 °C for 30 min. When indicated, buffer A was supplemented with 50 µM – 5 mM ZnCl2, 5 mM CaCl2 or 5 mM MgCl2. To study the stability of Zn^2+-PARP2-nucleosome complexes, PARP2-nucleosome complexes that have been formed for 30 min in buffer A containing 50 nM PARP2 and 0.15 mM Zn^2+ ions were mixed with EDTA (10 mM) and incubated for 15 min. In the studies of PARylation, NAD+ (0.5–10 µM) was mixed with nucleosomes (1–2 nM) and PARP2 (100 nM) in buffer A and incubated for 45 min at 25 °C.
spFRET measurements in solution were performed as described previously. Each measured single nucleosome was characterized by FRET between Cy3 and Cy5 labels calculated as a proximity ratio (EPR):1 [drawing 1]
Where I3 and I5 are fluorescence intensities of Cy3 and Cy5, respectively, and coefficients 0.19 and 0.81 provide correction for the spectral cross-talk between Cy3 and Cy5 detection channels. […] Relative frequency distributions of nucleosomes by EPR values, i.e. EPR profiles, (2000–5000 nucleosomes per experiment; 3 independent experiments) were plotted and further analyzed as a superposition of several normal (Gaussian) distributions for nucleosomes or nucleosome-PARP2 complexes. […]

[2] = molecular target: PARP2 (Mus musculus, UniProt O88554); test: Tryptophan fluorescence spectroscopy of PARP2 with Zn2+; assay type: binding; design: Recombinant mouse full-length PARP2 was obtained in the baculovirus expression system; made in house; host or cells: Sf9 insect cells (baculovirus); gift of Prof; O. Lavrik; settings: PARP2 0.5 µM, Zn2+ 377 µM
Procedure: (§1) Fluorescence spectra of Trp residues were measured in the 300–450 nm spectral range at the 270 nm excitation wavelengths using the Cary Eclipse spectrofluorometer (Varian/Agilent, USA).
Fluorescence of PARP2 was measured at 0.5 µM in a buffer containing 7% glycerin, 33 µM HEPES (pH 8.0), 75 mM NaCl, 89 µM EDTA, 27 µM ZnCl2, 1.5 µM TCEP. A solution of PARP2 was complemented with ZnCl2 to 377 µM.

[3] = molecular target: T2, WGR domain of PARP2 (Homo sapiens, UniProt Q9UGN5); test: Tryptophan fluorescence spectroscopy of the WGR domain titrated with divalent cations (one site binding fit); settings: for fluorescence intensity (Fig 3d): listed as Zn
T2 construct: WGR domain of PARP2 (residues 77–220) into pET-15b-TEV expression vector; 6xHis (pET-15b-TEV) (N, cleaved yes); made in house; host or cells: Escherichia coli Rosetta2 (DE3) pLysS
Procedure: as §1
Fluorescence of WGR domain was measured at 0.5 or 5 µM in a buffer containing 10 mM HEPES (pH 8.0), 150 mM NaCl and 0.73 or 7.3 µM EDTA, respectively. Solutions were complemented with ZnCl2 (0.2–308 µM) or MgCl2 (15–5000 µM), or CaCl2 (8–5000 µM) dissolved in a buffer containing 10 mM HEPES (pH 8.0), 150 mM NaCl. Intensity of the measured spectra was corrected for the concomitant dilution of the WGR domain. Integral intensities (Ifl.) of fluorescence spectra were averaged over three independent measurements (mean ± SEM) and used to plot the corresponding Ifl. vs. ion concentration graphs. Data were fitted with the one site binding equation:2 [drawing 2]
Where C is the concentration of divalent cations, Kd is a dissociation constant of the complex, Im and Ifl0 are maximal and initial values of Ifl., respectively.

T2 sequence (Q9UGN5 77-220): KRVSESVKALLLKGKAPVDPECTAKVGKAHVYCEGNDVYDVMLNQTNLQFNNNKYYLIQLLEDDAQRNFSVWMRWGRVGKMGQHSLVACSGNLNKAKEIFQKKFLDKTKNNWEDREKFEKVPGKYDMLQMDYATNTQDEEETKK
Chain of PARP2 (O88554 whole entry): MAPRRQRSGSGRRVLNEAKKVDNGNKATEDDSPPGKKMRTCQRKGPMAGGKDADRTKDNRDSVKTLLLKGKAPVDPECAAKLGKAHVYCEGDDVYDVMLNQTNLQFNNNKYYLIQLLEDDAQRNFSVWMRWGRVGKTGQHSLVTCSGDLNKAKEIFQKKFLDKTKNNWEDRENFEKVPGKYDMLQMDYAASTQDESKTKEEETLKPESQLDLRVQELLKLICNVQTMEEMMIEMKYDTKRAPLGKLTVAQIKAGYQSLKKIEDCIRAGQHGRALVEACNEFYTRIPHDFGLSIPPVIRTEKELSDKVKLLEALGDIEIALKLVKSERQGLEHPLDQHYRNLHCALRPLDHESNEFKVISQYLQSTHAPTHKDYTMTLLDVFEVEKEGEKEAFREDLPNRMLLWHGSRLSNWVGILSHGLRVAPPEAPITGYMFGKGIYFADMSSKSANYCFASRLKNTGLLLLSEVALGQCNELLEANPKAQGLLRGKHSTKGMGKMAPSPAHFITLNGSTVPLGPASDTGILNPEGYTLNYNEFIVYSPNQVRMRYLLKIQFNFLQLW

EPR maximum of the new peak in the EPR profile [1]: 0.4 | intensity of fluorescence spectrum of tryptophan residues of PARP2 after addition of ions [2]: increased | Zn2+ concentration at which changes in the fluorescence of Trp residues of the WGR domain were observed ([3]; Figure S4): 0.4 to 5 µM | Kd ([3]; Trp fluorescence, one site binding fit, 10 mM HEPES pH 8.0, 150 mM NaCl, residual EDTA present, read-out: dissociation constant of the divalent cation-WGR domain complex): 2000 nM and ~2000 nM | effect of ions on intensity of tryptophan fluorescence of the WGR domain ([3]; WGR domain 5 µM): considerably increased | fluorescence intensity (Fig 3d) ([3]; wavelength 330.000, 5.9 uM Zn): 64.607 and 70.927 and 88.925 and 69.072 | fluorescence intensity (Fig 3d) ([3]; wavelength 330.000, 303 uM + 7 mM EDTA): 42.022 and 51.928 and 42.125 and 50.264 | fluorescence intensity (Fig 3d) ([3]; wavelength 331.070, 5.9 uM Zn): 65.518 and 73.717 and 91.313 and 71.214 | fluorescence intensity (Fig 3d) ([3]; wavelength 331.070, 303 uM + 7 mM EDTA): 42.915 and 54.693 and 43.072 and 51.479 | fluorescence intensity (Fig 3d) ([3]; wavelength 332.000, 5.9 uM Zn): 66.418 and 75.386 and 92.296 and 72.347 | fluorescence intensity (Fig 3d) ([3]; wavelength 332.000, 303 uM + 7 mM EDTA): 43.600 and 54.088 and 43.890 and 52.288 | fluorescence intensity (Fig 3d) ([3]; wavelength 333.070, 5.9 uM Zn): 68.103 and 76.819 and 93.790 and 71.930 | fluorescence intensity (Fig 3d) ([3]; wavelength 333.070, 303 uM + 7 mM EDTA): 43.562 and 54.895 and 44.695 and 52.661 | fluorescence intensity (Fig 3d) ([3]; wavelength 334.000, 5.9 uM Zn): 68.621 and 78.226 | fluorescence intensity (Fig 3d) ([3]; wavelength 334.000, 11.6 uM Zn): 126.789 and 111.115
SMILES: [Cl-].[Cl-].[Zn+2] [Zn2+, ZnCl2]
fluorescence intensity (Fig 3d) ([3]; wavelength 330.000, 11.6 uM Zn): 118.714 and 102.531 and 101.352 and 109.279 | fluorescence intensity (Fig 3d) ([3]; wavelength 330.000, 17.2 uM): 125.078 and 114.327 and 116.086 and 114.151 | fluorescence intensity (Fig 3d) ([3]; wavelength 330.000, 22.1 uM): 125.812 and 115.097 and 117.722 and 114.227 | fluorescence intensity (Fig 3d) ([3]; wavelength 330.000, 308 uM): 125.859 and 119.818 and 119.168 and 117.804 | fluorescence intensity (Fig 3d) ([3]; wavelength 331.070, 11.6 uM Zn): 121.141 and 105.018 and 103.680 and 111.886 | fluorescence intensity (Fig 3d) ([3]; wavelength 331.070, 17.2 uM): 128.785 and 116.958 and 116.866 and 116.180 | fluorescence intensity (Fig 3d) ([3]; wavelength 331.070, 22.1 uM): 127.402 and 115.749 and 117.457 and 117.342 | fluorescence intensity (Fig 3d) ([3]; wavelength 331.070, 308 uM): 129.366 and 122.539 and 123.005 and 119.729 | fluorescence intensity (Fig 3d) ([3]; wavelength 332.000, 11.6 uM Zn): 123.485 and 106.394 and 106.147 and 113.513 | fluorescence intensity (Fig 3d) ([3]; wavelength 332.000, 17.2 uM): 128.874 and 118.064 and 118.851 and 118.214 | fluorescence intensity (Fig 3d) ([3]; wavelength 332.000, 22.1 uM): 131.124 and 117.614 and 119.985 and 119.070 | fluorescence intensity (Fig 3d) ([3]; wavelength 332.000, 308 uM): 130.593 and 122.360 and 123.201 and 121.123 | fluorescence intensity (Fig 3d) ([3]; wavelength 333.070, 11.6 uM Zn): 125.333 and 108.991 and 107.827 and 116.743 | fluorescence intensity (Fig 3d) ([3]; wavelength 333.070, 17.2 uM): 132.720 and 120.694 and 121.118 and 119.035 | fluorescence intensity (Fig 3d) ([3]; wavelength 333.070, 22.1 uM): 132.619 and 121.520 and 120.252 and 122.459 | fluorescence intensity (Fig 3d) ([3]; wavelength 333.070, 308 uM): 133.279 and 127.119 and 125.798 and 122.486
